In patent US9827312B2, “Method for carrying therapeutic substances into cells” (MAGFORCE AG, priority 2005, dated 2017):

Columns and labels:
tumor cells (in vitro) = assay: Destruction of tumor cells in vitro by cefamandole alone; assay type: cell-based; conditions: cefamandole without nanoparticles
Source text: Cefamandole (CAS No 30034-03-8) is used to combat bacterial infections. […] This substance's potential to combat cancer cells, however, is to be considered to be rather low. […] It is, however, possible to drastically increase the efficacy of cefamandole in the treatment of tumor cells by the simultaneous application of nanoparticles.

[1] = tested on: BT20 (breast carcinoma) cells; assay: Efficacy of cefamandole/nanoparticle mixture in vitro, BT20 (Example 2); assay type: cell-based, human; conditions: 72 hrs incubation, cefamandole 0.016 mg/ml in medium, 136 μl MFL AS M01
Description: (§1) The experiments in vitro were carried out with the cell lines BT20 (breast carcinoma) and WiDr (colon carcinoma). The tumor cells were taken from tumor tissue of a patient and cultivated as described in DE 199 12 798 C1. 2×10^6 cells, respectively, were prepared in a 75 cm^3 cell culture bottle with 25 ml of cell culture medium (RPMI+10% FBS+1.2 ml of pyruvate for WiDr cells, or respectively BME+10% FBS+pyruvate+5 ml of non-essential amino acids+5 ml glutamine for BT20 cells) for testing the efficacy of the cefamandole/nanoparticle mixture. 136 μl of magnetic fluid MFL AS M01 (iron oxide nanoparticle coated with polycondensed N-(2-aminoethyl)-3-(trimethoxysilyl)propylamine, manufacturer: MagForce Nanotechnologies GmbH, Berlin, Germany) (cFe=2 mol/l) and 390 μl of cefamandole solution (stock solution 1 mg/ml in 0.9% NaCl) were added to said cell suspension.
(§2) After 72 hrs, 30.5% of the BT20 cells and 24% of the WiDr cells had died. Neither cefamandole in the selected concentration, nor the nanoparticle alone, are capable of causing cell death (0% of dead cells). Only the combination of cefamandole and nanoparticles leads to said significant damage of the tumor cells which is due to the transfer of cefamandole into the cells.

[2] = tested on: WiDr (colon carcinoma) cells; assay: Efficacy of cefamandole/nanoparticle mixture in vitro, WiDr (Example 2); assay type: cell-based, human; conditions: 72 hrs incubation, cefamandole 0.016 mg/ml in medium, 136 μl MFL AS M01
Description: as §1, §2

[3] = tested on: glioblastoma human cell line RUSIRS1; assay: Increase in the activity of cytostatics with nanoparticles (Table 1), RUSIRS1; assay type: cell-based; conditions: procedure of example 2
Description: as §1
(§3) Corresponding to the experiment procedure according to example 2, the following […] were tested in vitro with the active ingredients listed in table 1: a) glioblastoma human cell line RUSIRS 1; b) breast carcinoma cell lines BT20; c) colon carcinoma cell line WiDR; d) bronchial carcinoma cells NSCLC, e) rectal carcinoma cells and f) prostate carcinoma cell line DU 145.
(§4) In all cases, an increased activity of the cytostatic could be observed. The increase in activity is indicated in parentheses after the respective cytostatic, wherein (+) means an increase of about 5% to 80% and (++) means an increase of 80% to 500%.

[4] = tested on: breast carcinoma cell lines BT20; assay: Increase in the activity of cytostatics with nanoparticles (Table 1), BT20; assay type: cell-based, human; conditions: procedure of example 2
Description: as §1, §3, §4

[5] = tested on: colon carcinoma cell line WiDr; assay: Increase in the activity of cytostatics with nanoparticles (Table 1), WiDr; assay type: cell-based, human; conditions: procedure of example 2
Description: as §1, §3, §4

[6] = tested on: bronchial carcinoma cells NSCLC; assay: Increase in the activity of cytostatics with nanoparticles (Table 1), NSCLC; assay type: cell-based; conditions: procedure of example 2
Description: as §1, §3, §4

rectal carcinoma cells = assay: Increase in the activity of cytostatics with nanoparticles (Table 1), rectal carcinoma; assay type: cell-based; conditions: procedure of example 2
Description: as §1, §3, §4

[7] = tested on: prostate carcinoma cell line DU 145; assay: Increase in the activity of cytostatics with nanoparticles (Table 1), DU 145; assay type: cell-based; conditions: procedure of example 2
Description: as §1, §3, §4

neuroglioma cell line H4 = assay: Increase in the activity of cytostatics with nanoparticles (Table 1), H4; assay type: cell-based; conditions: procedure of example 2
Description: as §1, §3, §4

Compound	concentration in the cell culture medium needed for destruction of tumor cells (tumor cells (in vitro)) [mg/mL]	dead cells [1] [%]	dead cells [2] [%]	increase in the activity of cytostatics [3]	increase in the activity of cytostatics [4]	increase in the activity of cytostatics [5]	increase in the activity of cytostatics [6]	increase in the activity of cytostatics (rectal carcinoma cells)	increase in the activity of cytostatics [7]	increase in the activity of cytostatics (neuroglioma cell line H4)
Cn1nnnc1SCC1=C(C(=O)O)N2C(=O)[C@@H](NC(=O)[C@H](O)c3ccccc3)[C@H]2SC1 [cefamandole, Cefamandole]	≥ 0.5	0	0							
CC[C@]1(O)C[C@H]2CN(CCc3c([nH]c4ccccc34)[C@@](C(=O)OC)(c3cc4c(cc3OC)N(C=O)[C@H]3[C@@](O)(C(=O)OC)[C@H](OC(C)=O)[C@]5(CC)C=CCN6CC[C@]43[C@@H]65)C2)C1 [vincristine]				(+) ((+) means an increase of about 5% to 80%)	(++) ((++) means an increase of 80% to 500%)	(+) ((+) means an increase of about 5% to 80%)	(++) ((++) means an increase of 80% to 500%)	(++) ((++) means an increase of 80% to 500%)	(+) ((+) means an increase of about 5% to 80%)	(+) ((+) means an increase of about 5% to 80%)
